In patent US10059701B2 (Merck Patent GmbH, priority 2015, dated 2018):
pIC50: −log10 of the molar value.

Assays:
IRAK1 = molecular target: T1, IRAK1 (Homo sapiens, UniProt P51617); test: IRAK1 enzymatic assay (ADP-Glo luminescence); type: biochemical; details: purified human recombinant His-TEV-IRAK1 (194-712)
T1 construct: His-TEV-IRAK1 (194-712); His (N); TEV cleavage site (N)
Description: IRAK1 is a human purified recombinant enzyme (His-TEV-IRAK1 (194-712))
In this assay, IRAK1 hydrolyses ATP and autophosphorylates. Measurement of IRAK-1 inhibition is performed in 384-well format based on luminescence assay (ADP-Glo™ Kinase Assay from Promega). Purified human recombinant IRAK1 (0.3 μg/ml) and serial diluted compounds in DMSO (range of concentration from 10 μM to 0.5 nM) or controls (1% DMSO) are incubated for 15 minutes at RT in assay buffer containing 50 mM Hepes pH 7.0, Fatty acid-free BSA 0.1%, Dithiothreitol (DTT) 2 mM, MgCl2 10 mM, EGTA 0.5 mM, Triton X-100 0.01%. The kinase reaction is then initiated by the addition of ATP […] After 2 hours of incubation at RT, the reaction is stopped and the unconsumed ATP depleted by the addition of ADP-Glo™ Reagent according to supplier instructions. After 40 minutes of incubation at RT, the Kinase Detection Reagent is then added to the assay plate according to supplier instructions. After 20 minutes of incubation at RT, the luminescence signal is measured with a luminometer (PerkinElmer Envision or equivalent reader).

IRAK4 = molecular target: T2, IRAK4 (Homo sapiens, UniProt Q9NWZ3); test: IRAK4 enzymatic assay (ADP-Glo luminescence); type: biochemical; details: purified human recombinant His-TEV-IRAK4 (1-460), ATP 2 μM
T2 construct: His-TEV-IRAK4 (1-460); His (N); TEV cleavage site (N)
T2 sequence (Q9NWZ3 1-460): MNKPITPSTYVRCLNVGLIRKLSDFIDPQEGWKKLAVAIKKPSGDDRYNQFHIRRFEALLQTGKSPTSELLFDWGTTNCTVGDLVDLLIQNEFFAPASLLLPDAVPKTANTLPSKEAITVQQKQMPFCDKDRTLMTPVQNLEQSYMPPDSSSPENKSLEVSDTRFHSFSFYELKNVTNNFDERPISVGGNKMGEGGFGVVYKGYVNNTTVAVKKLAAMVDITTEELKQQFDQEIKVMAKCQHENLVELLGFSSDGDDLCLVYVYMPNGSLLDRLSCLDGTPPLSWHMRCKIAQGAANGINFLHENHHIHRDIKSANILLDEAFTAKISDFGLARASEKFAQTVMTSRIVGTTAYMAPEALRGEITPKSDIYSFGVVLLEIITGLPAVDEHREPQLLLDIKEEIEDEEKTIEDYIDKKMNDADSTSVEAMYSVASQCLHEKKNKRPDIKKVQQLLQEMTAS
Description: IRAK4 is a human purified recombinant enzyme (His-TEV-IRAK4 (1-460)).
In this assay, IRAK4 hydrolyses ATP, autophosphorylates and phosphorylates a Serine/Threonine generic peptidic substrate (STK: 61ST1BLC from CisBio International). Measurement of IRAK-4 inhibition is performed in 384-well format based on a luminescence assay (ADP-Glo™ Kinase Assay from Promega). Purified human recombinant IRAK4 (0.3 μg/ml) and serial diluted compounds in DMSO (range of concentration from 10 μM to 0.5 nM) or controls (1% DMSO) are incubated for 15 minutes at RT in assay buffer containing 50 mM Hepes pH 7.0, Fatty acid-free BSA 0.1%, Dithiothreitol (DTT) 2 mM, MgCl2 10 mM, EGTA 0.5 mM, Triton X-100 0.01%, MnCl2 5 mM. The kinase reaction is then initiated by the addition of ATP (2 μM) and the peptidic substrate STK1-biotin peptide (300 nM). After 2 hours of incubation at RT, the reaction is stopped and the unconsumed ATP depleted by the addition of ADP-Glo™ Reagent according to supplier instructions. After 40 minutes of incubation at RT, the Kinase Detection Reagent is then added to the assay plate according to supplier instructions. After 20 minutes of incubation at RT, the luminescence signal is measured with a plate-reading luminometer (PerkinElmer Envision or equivalent reader).

T1 sequence (P51617 194-712): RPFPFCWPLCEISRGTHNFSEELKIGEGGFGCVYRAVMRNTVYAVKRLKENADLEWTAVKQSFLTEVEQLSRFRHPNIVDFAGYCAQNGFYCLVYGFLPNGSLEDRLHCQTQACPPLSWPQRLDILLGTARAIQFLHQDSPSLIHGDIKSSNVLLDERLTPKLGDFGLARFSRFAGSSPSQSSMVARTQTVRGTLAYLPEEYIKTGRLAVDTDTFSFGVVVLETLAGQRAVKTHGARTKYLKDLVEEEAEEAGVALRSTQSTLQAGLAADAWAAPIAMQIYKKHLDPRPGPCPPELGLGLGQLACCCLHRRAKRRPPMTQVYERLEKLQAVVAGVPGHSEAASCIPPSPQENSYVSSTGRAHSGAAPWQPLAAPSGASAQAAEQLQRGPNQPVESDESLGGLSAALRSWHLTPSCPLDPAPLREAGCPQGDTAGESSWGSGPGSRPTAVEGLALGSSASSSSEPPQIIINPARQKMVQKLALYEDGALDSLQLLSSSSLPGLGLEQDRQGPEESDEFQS

Row | SMILES | pIC50 (IRAK1) | pIC50 (IRAK4)
1 | O=C(/N=c1\[nH]c2cc(N3CCOCC3=O)ccc2n1CC1(CO)CC1)c1cccc(C(F)F)c1 [Compound 14, (E)-3-(difluoromethyl)-N-(1-((1-(hydroxymethyl)cyclopropyl)methyl)-5-(3-oxomorpholino)-1H-benzo[d]imidazol-2(3H)-ylidene)benzamide] | ≥ 7.00 | ≥ 7.00
2 | C[C@H](CCO)n1/c(=N/C(=O)c2cccc(C(F)(F)F)c2)[nH]c2cc(N3CCOCC3=O)ccc21 [Compound 15, (R,E)-N-(1-(4-hydroxybutan-2-yl)-5-(3-oxomorpholino)-1H-benzo[d]imidazol-2(3H)-ylidene)-3-(trifluoromethyl)benzamide] | 6.00 to 7.00 | ≥ 7.00
3 | C[C@@H](CCO)n1/c(=N/C(=O)c2cccc(C(F)F)c2)[nH]c2cc(N3CCOCC3=O)ccc21 [Compound 16, (S,E)-3-(difluoromethyl)-N-(1-(4-hydroxybutan-2-yl)-5-(3-oxomorpholino)-1H-benzo[d]imidazol-2(3H)-ylidene)benzamide] | 6.00 to 7.00 | ≥ 7.00
4 | O=C(/N=c1\[nH]c2cc(N3CCOCC3=O)ccc2n1CCCCO)c1cccc(C(F)(F)F)c1 [Compound 17, (E)-N-(1-(4-hydroxybutyl)-5-(3-oxomorpholino)-1H-benzo[d]imidazol-2(3H)-ylidene)-3-(trifluoromethyl)benzamide] | 6.00 to 7.00 | ≥ 7.00
5 | N#Cc1cccc(C(=O)/N=c2\[nH]c3cc(N4CCOCC4=O)ccc3n2CCCCO)c1 [Compound 18, (E)-3-cyano-N-(1-(4-hydroxybutyl)-5-(3-oxomorpholino)-1H-benzo[d]imidazol-2(3H)-ylidene)benzamide] | 6.00 to 7.00 | ≥ 7.00
6 | CS(=O)(=O)c1cccc(C(=O)/N=c2\[nH]c3cc(N4CCOCC4=O)ccc3n2CCCCO)c1 [Compound 19, (E)-N-(1-(4-hydroxybutyl)-5-(3-oxomorpholino)-1H-benzo[d]imidazol-2(3H)-ylidene)-3-(methylsulfonyl)benzamide] | 6.00 to 7.00 | ≥ 7.00
7 | Cn1cnc2ccc(C(=O)/N=c3\[nH]c4cc(N5CCOCC5=O)ccc4n3CCCO)cc21 [Compound 20, (E)-N-(1-(3-hydroxypropyl)-5-(3-oxomorpholino)-1H-benzo[d]imidazol-2(3H)-ylidene)-1-methyl-1H-benzo[d]imidazole-6-carboxamide] | < 6.00 | 6.00 to 7.00
8 | O=C(/N=c1\[nH]c2cc(N3CCOCC3=O)ccc2n1CCCO)c1cccc(CO)c1 [Compound 21, (E)-3-(hydroxymethyl)-N-(1-(3-hydroxypropyl)-5-(3-oxomorpholino)-1H-benzo[d]imidazol-2(3H)-ylidene)benzamide] | 6.00 to 7.00 | ≥ 7.00
9 | Cn1cnc2cc(C(=O)/N=c3\[nH]c4cc(N5CCOCC5=O)ccc4n3CCCO)ccc21 [Compound 22, (E)-N-(1-(3-hydroxypropyl)-5-(3-oxomorpholino)-1H-benzo[d]imidazol-2(3H)-ylidene)-1-methyl-1H-benzo[d]imidazole-5-carboxamide] | < 6.00 | < 6.00
10 | O=C(/N=c1\[nH]c2cc(N3CCOCC3=O)ccc2n1CCCO)c1ccc2c(c1)COC2=O [Compound 23, (E)-N-(1-(3-hydroxypropyl)-5-(3-oxomorpholino)-1H-benzo[d]imidazol-2(3H)-ylidene)-1-oxo-1,3-dihydroisobenzofuran-5-carboxamide] | < 6.00 | ≥ 7.00
11 | C[C@H](CCO)n1/c(=N/C(=O)c2cccc(S(C)(=O)=O)c2)[nH]c2cc(N3CCOCC3=O)ccc21 [Compound 24, (R,E)-N-(1-(4-hydroxybutan-2-yl)-5-(3-oxomorpholino)-1H-benzo[d]imidazol-2(3H)-ylidene)-3-(methylsulfonyl)benzamide] | 6.00 to 7.00 | ≥ 7.00
12 | O=C(/N=c1\[nH]c2cc(N3CCOCC3=O)ccc2n1CC1(CO)CC1)c1cc(F)cc(C(F)(F)F)c1 [Compound 25, (E)-3-fluoro-N-(1-((1-(hydroxymethyl)cyclopropyl)methyl)-5-(3-oxomorpholino)-1H-benzo[d]imidazol-2(3H)-ylidene)-5-(trifluoromethyl)benzamide] | 6.00 to 7.00 | ≥ 7.00
13 | O=C(/N=c1\[nH]c2cc(N3CCOCC3=O)ccc2n1CCCCO)c1cccc(C(F)F)c1 [Compound 26, (E)-3-(difluoromethyl)-N-(1-(4-hydroxybutyl)-5-(3-oxomorpholino)-1H-benzo[d]imidazol-2(3H)-ylidene)benzamide] | ≥ 7.00 | ≥ 7.00
14 | N#Cc1cccc(C(=O)/N=c2\[nH]c3cc(N4CCOCC4=O)ccc3n2[C@H]2CC[C@H](O)CC2)c1 [Compound 27, trans-(E)-3-cyano-N-(1-(4-hydroxycyclohexyl)-5-(3-oxomorpholino)-1H-benzo[d]imidazol-2(3H)-ylidene)benzamide] | ≥ 7.00 | ≥ 7.00
15 | O=C(/N=c1\[nH]c2cc(N3CCOCC3=O)ccc2n1[C@H]1CC[C@H](O)CC1)c1cccc(C(F)F)c1 [Compound 28, trans-(E)-3-(difluoromethyl)-N-(1-(4-hydroxycyclohexyl)-5-(3-oxomorpholino)-1H-benzo[d]imidazol-2(3H)-ylidene)benzamide] | ≥ 7.00 | ≥ 7.00
16 | O=C(/N=c1\[nH]c2cc(N3CCCOC3=O)ccc2n1CCCO)c1cccc(C(F)F)c1 [Compound 29, (E)-3-(difluoromethyl)-N-(1-(3-hydroxypropyl)-5-(2-oxo-1,3-oxazinan-3-yl)-1H-benzo[d]imidazol-2(3H)-ylidene)benzamide] | ≥ 7.00 | ≥ 7.00
17 | O=C(/N=c1\[nH]c2cc(N3CCOCC3=O)ccc2n1CCCO)c1ccccc1 [Compound 30, (E)-N-(1-(3-hydroxypropyl)-5-(3-oxomorpholino)-1H-benzo[d]imidazol-2(3H)-ylidene)benzamide] | 6.00 to 7.00 | 6.00 to 7.00
18 | CS(=O)(=O)c1cccc(C(=O)/N=c2\[nH]c3cc(N4CCOCC4=O)ccc3n2[C@H]2CC[C@H](O)CC2)c1 [Compound 31, trans-(E)-N-(1-(4-hydroxycyclohexyl)-5-(3-oxomorpholino)-1H-benzo[d]imidazol-2(3H)-ylidene)-3-(methylsulfonyl)benzamide] | ≥ 7.00 | ≥ 7.00
19 | O=C(/N=c1\[nH]c2cc(N3CCOCC3=O)ccc2n1[C@H]1CC[C@H](O)CC1)c1cccc(C(F)(F)F)c1 [Compound 32, trans-(E)-N-(1-(4-hydroxycyclohexyl)-5-(3-oxomorpholino)-1H-benzo[d]imidazol-2(3H)-ylidene)-3-(trifluoromethyl)benzamide] | 6.00 to 7.00 | ≥ 7.00
20 | O=C(/N=c1\[nH]c2cc(N3CCCOC3=O)ccc2n1CCCO)c1cccc(C(F)(F)F)c1 [Compound 33, (E)-N-(1-(3-hydroxypropyl)-5-(2-oxo-1,3-oxazinan-3-yl)-1H-benzo[d]imidazol-2(3H)-ylidene)-3-(trifluoromethyl)benzamide] | ≥ 7.00 | ≥ 7.00
21 | NC(=O)/C=C/c1cccc(C(=O)/N=c2\[nH]c3cc(N4CCOCC4=O)ccc3n2CCCO)c1 [Compound 34, (E)-3-((E)-3-amino-3-oxoprop-1-en-1-yl)-N-(1-(3-hydroxypropyl)-5-(3-oxomorpholino)-1H-benzo[d]imidazol-2(3H)-ylidene)benzamide] | ≥ 7.00 | ≥ 7.00
